Patent publication US6911443B2 (Bayer Aktiengesellschaft, priority 2000, dated 2005)

target: T1, human Syk (GST-Syk) (Homo sapiens, UniProt P43405); assay: Syk tyrosine kinase inhibitory assay; assay type: biochemical; conditions: in vitro; compounds as yielded by solid phase synthesis, purity about 40 to 90%
T1 construct: A cDNA fragment encoding human Syk openreading frame was cloned; made in house; host or cells: Sf21 insect cells (baculovirus, transfer vector pAcG2T)
From the text: [Syk Tyrosine Kinase Inhibitory Assay]
(1) Preparation of Syk Protein
A cDNA fragment encoding human Syk openreading frame was cloned from total RNA of human Burkitt's lymphoma B cell lines, Raji (American Type Culture Collection), with the use of RT-PCR method. The cDNA fragment was inserted into pAcG2T (Pharmingen, San Diego, Calif.) to construct a baculovirus transfer vector. Then the vector, together with the linearized baculovirus (BaculoGold™, Pharmingen), was used to transfect Sf21 cells (Invitrogen, San Diego, Calif.).
Generated recombinant baculovirus was cloned and amplified in Sf21 cells. Sf21 cells were infected with this amplified high titer virus to produce a chimeric protein of Syk kinase fused by glutathione-S-transferase (GST).
The resulting GST-Syk was purified with the use of glutathione column (Amersham Pharmacia Biotech AB, Uppsala, Sweden) according to the manufacturer's instruction.
(2) Synthesize of a Peptide
Next, a peptide fragment of 30 residues including two tyrosine residues, […], was synthesized by a peptide synthesizer. The N-terminal of the fragment was then biotinylated to obtain biotinylated activation loop peptide (AL).
(3) The Measurement of Syk Tyrosine Kinase Activity
All reagents were diluted with the Syk kinase assay buffer (50 mM Tris-HCl (pH 8.0), 10 mM MgCl2, 0.1 mM Na3VO4, 0.1% BSA, 1 mM DTT). First, a mixture (35 μl) including […] of GST-Syk and 0.5 μg of AL was put in each well in 96-well plates. Then 5 μl of a test compound in the presence of 2.5% dimethylsulfoxide (DMSO) was added to each well. To this mixture was added […] (10 μl) to initiate the kinase reaction. The final reaction mixture (50 μl) consists of 0.65 nM GST-Syk, 3 μM AL, 30 μM ATP, a test compound, 0.25% DMSO, and a Syk kinase assay buffer.
The mixture was incubated for 1 hr at room temperature, and the reaction was terminated by the addition of 120 μl of termination buffer (50 mM Tris-HCl (pH 8.0), 10 mMEDTA, 500 mM NaCl, 0.1% BSA). The mixture was transferred to streptavidin-coated plates and incubated for 30 min at room temperature to combine biotin-AL to the plates. After washing the plates with Tris-buffered saline (TBS) (50 mM Tris-HCl (pH 8.0), 138 mM NaCl, 2.7 mM KCl) containing 0.05% Tween-20 for 3 times, 100 μl of antibody solution consisting of 50 mM Tris-HCl (pH 8.0), 138 mM NaCl, 2.7 mM KCl, 1% BSA, 60 ng/ml anti-phosphotyrosine monoclonal antibody, 4G10 (Upstate Biotechnology), which is labeled with europium by Amersham Pharmacia's kit in advance, was added and incubated at room temperature for 60 min. After washing, 100 μl of enhancement solution (Amersham pharmacia Biotech) was added and then time-resolved fluorescence was measured by multi-label counter ARVO (Wallac Oy, Finland) at 340 nm for excitation and 615 nm for emission with 400 msec of delay and 400 msec of window.

Row | Activity grade (IC50 class) | SMILES
1 | C-D | COc1ccc(-c2cc3ncnn3c(Nc3ccc4ncccc4c3)n2)cc1OC [Example 9-18]
2 | C-D | COc1ccc(-c2cc3nccn3c(N3CCN(c4ccc(Cl)c(Cl)c4)CC3)n2)cc1OC [Example 9-42]
3 | C-D | COc1ccc(-c2cc3nccn3c(N3CCN(C(c4ccc(F)cc4)c4ccc(F)cc4)CC3)n2)cc1OC [Example 9-45]
4 | C-D | COc1ccc(-c2cc3nccn3c(N3CCN(C4CCCCC4)CC3)n2)cc1OC [Example 9-48]
5 | C-D | COc1ccc(-c2cc3nccn3c(N3CCN(c4ccc(C(F)(F)F)cn4)CC3)n2)cc1OC [Example 9-50]
6 | C-D | COc1ccc(-c2cc3nccn3c(N3CCC(Cc4ccccc4)CC3)n2)cc1OC [Example 9-59]
7 | C-D | COc1ccc(-c2cc3nccn3c(N3CCC(C(=O)c4ccc(F)cc4)CC3)n2)cc1OC [Example 9-61]

same assay, conditions: in vitro; compounds as yielded by solid phase synthesis, purity about 40 to 90%; read-out: Activity grade (IC50 class)

Row | IC50 [nM] | SMILES
8 | 2000 to 10000 | COC(=O)[C@H](Cc1ccc(O)cc1)Nc1nc(-c2ccc(OC)c(OC)c2)cc2nccn12 [Example 9-2]
9 | 2000 to 10000 | COc1ccc(-c2cc3nccn3c(NCCN(C)C)n2)cc1OC [Example 9-3]
10 | 500 to 2000 | COc1ccc(-c2cc3nccn3c(NCC(O)CO)n2)cc1OC (stereo not drawn) [Example 9-4]
11 | 500 to 2000 | COc1ccc(-c2cc3nccn3c(N[C@@H](CO)Cc3ccccc3)n2)cc1OC [Example 9-5]
12 | < 500 | COc1ccc(-c2cc3nccn3c(SC3C=CCCC3)n2)cc1OC (stereo not drawn) [Example 9-6]
13 | < 500 | COc1ccc(-c2cc3nccn3c(SCC3CC3)n2)cc1OC [Example 9-7]
14 | < 500 | C=CCSc1nc(-c2ccc(OC)c(OC)c2)cc2nccn12 [Example 9-8]
15 | < 500 | COc1ccc(-c2cc3nccn3c(SC(C)C)n2)cc1OC [Example 9-9]
16 | 500 to 2000 | COc1ccc(-c2cc3nccn3c(NCc3ccccc3)n2)cc1OC [Example 9-10]
17 | < 500 | CCNc1nc(-c2ccc(OC)c(OC)c2)cc2nccn12 [Example 9-11]
18 | 500 to 2000 | CNc1nc(-c2ccc(OC)c(OC)c2)cc2nccn12 [Example 9-12]
19 | 500 to 2000 | COc1ccc(-c2cc3nccn3c(N3CCc4ccccc43)n2)cc1OC [Example 9-13]
20 | < 500 | COc1ccc(-c2cc3ncnn3c(Nc3cccc(N)n3)n2)cc1OC [Example 9-16]
21 | 2000 to 10000 | COc1ccc(-c2cc3ncnn3c(Nc3ncccc3O)n2)cc1OC [Example 9-17]
22 | < 500 | COc1ccc(-c2cc3ncnn3c(Nc3ccc(/C=C/C(=O)O)cc3)n2)cc1OC [Example 9-19]
23 | < 500 | COc1ccc(-c2cc3ncnn3c(Nc3ccc(CCC(=O)O)cc3)n2)cc1OC [Example 9-20]
24 | < 500 | COc1ccc(-c2cc3nccn3c(Nc3ccc(CCC4=NC(C)(C)CO4)cc3)n2)cc1OC [Example 9-22]
25 | < 500 | CCOC(=O)Cc1ccc(Nc2nc(-c3ccc(OC)c(OC)c3)cc3nccn23)cc1 [Example 9-23]
26 | < 500 | COC(=O)CCc1ccc(Nc2nc(-c3ccc(OC)c(OC)c3)cc3nccn23)cc1 [Example 9-24]
27 | 500 to 2000 | COC(=O)CCCc1ccc(Nc2nc(-c3ccc(OC)c(OC)c3)cc3nccn23)cc1 [Example 9-25]

Row | IC50 [nM] | SMILES
28 | 500 to 2000 | COc1ccc(-c2cc3nccn3c(Nc3ccc(CCN4C(=O)c5ccccc5C4=O)cc3)n2)cc1OC [Example 9-26]
29 | < 500 | COc1ccc(-c2cc3nccn3c(SCc3ccccc3Cl)n2)cc1OC [Example 9-27]
30 | < 500 | CCOC(=O)CCSc1nc(-c2ccc(OC)c(OC)c2)cc2nccn12 [Example 9-28]
31 | < 500 | COc1ccc(-c2cc3nccn3c(N(CCO)Cc3ccccc3)n2)cc1OC [Example 9-29]
32 | 2000 to 10000 | COc1ccc(-c2cc3nccn3c(N3CCOCC3)n2)cc1OC [Example 9-30]
33 | 500 to 2000 | COc1ccc(-c2cc3nccn3c(NC3CCC(C(=O)O)CC3)n2)cc1OC (stereo not drawn) [Example 9-31]
34 | 2000 to 10000 | COc1ccc(-c2cc3nccn3c(N3CCN(Cc4ccc5c(c4)OCO5)CC3)n2)cc1OC [Example 9-32]
35 | 2000 to 10000 | COc1ccc(-c2cc3nccn3c(N3CCN(c4ccccc4)CC3)n2)cc1OC [Example 9-33]
36 | 2000 to 10000 | COc1ccc(-c2cc3nccn3c(N3CCN(c4ccccc4OC)CC3)n2)cc1OC [Example 9-34]
37 | 2000 to 10000 | COc1ccc(-c2cc3nccn3c(N3CCN(c4ccc([N+](=O)[O-])cc4)CC3)n2)cc1OC [Example 9-35]
38 | 2000 to 10000 | COc1ccc(-c2cc3nccn3c(N3CCN(c4ccc(C(C)=O)cc4)CC3)n2)cc1OC [Example 9-36]
39 | 500 to 2000 | COc1ccc(-c2cc3nccn3c(N3CCN(C)CC3)n2)cc1OC [Example 9-37]
40 | 500 to 2000 | COc1ccc(-c2cc3nccn3c(N3CCN(c4ccccn4)CC3)n2)cc1OC [Example 9-38]
41 | 2000 to 10000 | COc1ccc(-c2cc3nccn3c(N3CCN(c4ccc(Cl)cc4)CC3)n2)cc1OC [Example 9-39]
42 | 2000 to 10000 | COc1ccc(N2CCN(c3nc(-c4ccc(OC)c(OC)c4)cc4nccn34)CC2)cc1 [Example 9-40]
43 | 500 to 2000 | COc1ccc(-c2cc3nccn3c(N3CCN(c4ncccn4)CC3)n2)cc1OC [Example 9-41]
44 | 2000 to 10000 | COc1cccc(N2CCN(c3nc(-c4ccc(OC)c(OC)c4)cc4nccn34)CC2)c1 [Example 9-43]
45 | 2000 to 10000 | COc1ccc(-c2cc3nccn3c(N3CCN(c4ccc(C)cc4)CC3)n2)cc1OC [Example 9-44]
46 | 2000 to 10000 | COc1ccc(-c2cc3nccn3c(N3CCN(C(=O)c4ccco4)CC3)n2)cc1OC [Example 9-46]
47 | 2000 to 10000 | COc1ccc(-c2cc3nccn3c(N3CCN(c4ccccc4F)CC3)n2)cc1OC [Example 9-47]

Row | IC50 [nM] | SMILES
48 | 500 to 2000 | COc1ccc(-c2cc3nccn3c(N3CCN(C(C)=O)CC3)n2)cc1OC [Example 9-49]
49 | 2000 to 10000 | COc1ccc(-c2cc3nccn3c(N3CCN(CCO)CC3)n2)cc1OC [Example 9-51]
50 | 500 to 2000 | CCN(Cc1ccncc1)c1nc(-c2ccc(OC)c(OC)c2)cc2nccn12 [Example 9-52]
51 | < 500 | COc1ccc(-c2cc3nccn3c(N(C)CCC(O)c3ccccc3)n2)cc1OC (stereo not drawn) [Example 9-53]
52 | 500 to 2000 | COc1ccc(-c2cc3nccn3c(N3CCCCC3)n2)cc1OC [Example 9-54]
53 | 500 to 2000 | COc1ccc(-c2cc3nccn3c(N3CCCC3)n2)cc1OC [Example 9-55]
54 | 500 to 2000 | CCN(CC)c1nc(-c2ccc(OC)c(OC)c2)cc2nccn12 [Example 9-56]
55 | < 500 | COc1ccc(-c2cc3nccn3c(N3CCC(C(N)=O)CC3)n2)cc1OC [Example 9-57]
56 | 500 to 2000 | COc1ccc(-c2cc3nccn3c(N3CCC(=O)CC3)n2)cc1OC [Example 9-58]
57 | 500 to 2000 | COc1ccc(-c2cc3nccn3c(N3CCC(c4ccc(O)cc4)CC3)n2)cc1OC [Example 9-60]
58 | 2000 to 10000 | COc1ccc(-c2cc3nccn3c(N3CCC(C)CC3)n2)cc1OC [Example 9-62]
59 | 2000 to 10000 | COc1ccc(-c2cc3nccn3c(N3CCC(N4CCCCC4)CC3)n2)cc1OC [Example 9-63]
60 | 2000 to 10000 | COc1ccc(-c2cc3nccn3c(N3CCC(O)(c4ccc(Cl)cc4)CC3)n2)cc1OC [Example 9-64]
61 | 500 to 2000 | COc1ccc(-c2cc3nccn3c(N3CCCC(CO)C3)n2)cc1OC (stereo not drawn) [Example 9-65]
62 | 2000 to 10000 | COc1ccc(-c2cc3nccn3c(N3CCC4(CC3)OCCO4)n2)cc1OC [Example 9-66]
63 | 2000 to 10000 | COC(=O)C1CCN(c2nc(-c3ccc(OC)c(OC)c3)cc3nccn23)CC1 [Example 9-67]
64 | 2000 to 10000 | COc1ccc(-c2cc3nccn3c(N3CCC(C#N)(c4ccccc4)CC3)n2)cc1OC [Example 9-68]
65 | 500 to 2000 | COc1ccc(-c2cc3nccn3c(N3CCC(O)CC3)n2)cc1OC [Example 9-69]
66 | 2000 to 10000 | COc1ccc(-c2cc3nccn3c(N3CC[C@@H](NC(=O)C(F)(F)F)C3)n2)cc1OC [Example 9-70]
